Data set [1] concerns the target T1, insulin lispro (hexameric form R6) (Homo sapiens, UniProt P01308, K53P/P52K).
T1 construct: purchased Eli Lilly Humalog®
The data set can be described thus: State of association of insulin lispro by circular dichroism (CD signal at 251 nm). It counts as physicochemical. The note with it: added to Humalog, FIG. 27. An excerpt: Circular dichroism makes it possible to study the secondary and quaternary structure of insulin. The insulin monomers organize into dimers and hexamers. […] There are two hexameric forms, form R6 and form T6. […] Loss of the CD signal at 251 nm is connected with destabilization of the hexamer (and therefore the first sign of transformation of the hexamer to dimer).
A general note: Circular dichroism is widely used to follow secondary structure.

The conditions of data set [2]: pH; cited from earlier work.
For data set [3], the system named is humans. The note with it: injected subcutaneously; cited from earlier work.
For data set [4] the following is noted: form of hexamers, 4° C.; cited from earlier work.
Data set [5] concerns the target human insulin (hexameric form) (Homo sapiens, UniProt P01308). The data set can be described thus: State of association of human insulin by circular dichroism (CD signal at 276 nm). It counts as physicochemical. To be noted: absence of m-cresol, FIG. 28. An excerpt:
Loss of the CD signal at 276 nm is therefore characteristic of destabilization of the hexamer to dimers or monomers.

Counter-ions that a name gives are not always drawn.

T1 sequence (P01308 25-54 P52K/K53P limits assumed): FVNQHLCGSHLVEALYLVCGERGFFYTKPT
T1 sequence (P01308 90-110 limits assumed): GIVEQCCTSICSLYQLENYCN
Sequence of human insulin (hexameric form) (P01308 25-54 limits assumed): as the sequence (P01308 25-54 P52K/K53P limits assumed) above, with K28P, P29K counted along it

Turning to `O=C(O)CC(O)(CC(=O)O)C(=O)O` [citrate, sodium citrate], in data set [1], the “effect on the CD signal at 251 nm / R6 form of insulin lispro” value was “almost no effect”.

Turning to “Insulin lispro: rapid-acting insulin analog, active of Humalog®”, the isoelectric point in data set [2] was 5.3. Regarding “human insulin: insulin obtained by synthesis or recombination whose peptide sequence is the sequence of human insulin”, the hypoglycemic effect after in data set [3] was 60 min. Further, the “stable for” value in data set [4] is listed as about 2 years.

Take `O=C(O)CN(CCN(CC(=O)O)CC(=O)O)CC(=O)O` [EDTA, reference compound]: the “effect on the hexameric structure of human insulin (CD signal at 276 nm)” value in data set [5] is reported as “complete dissociation of the hexamer to dimers”. In addition, the “effect on the CD signal at 251 nm / R6 form of insulin lispro” value in data set [1] was “completely destructures the R6 form of insulin lispro”.

Source of the values: patent US9492467B2, “Rapid-acting insulin formulation comprising an oligosaccharide” (ADOCIA, priority 2011, dated 2016).
